Measured values as given in patent US20040158036A1, “Neuritogenic compound and uses thereof” (priority 2004, published 2004).
“Also recorded” adds a separate entry of the source. Read-outs that look alike come from different tables or passages of the source. Ends that are not written are not given here.

How the values were obtained:
explanted DRG [1] = experiment: Neurite outgrowth from explanted DRG cultures (Example 3); format: cell-based, C57/B16 mice; conditions: for neurite outgrowth relative to non-treated cultures / INGAP peptide-stimulated neurite outgrowth after preincubation with anti-NGF antibody: INGAP peptide 1000 ng/mL; for neurite outgrowth relative to non-treated cultures: NGF 50 ng/mL, 17-β-estradiol 10 nM, 4 and 7 days; for overall length and density of neurite outgrowth vs non-treated DRG: 4 days in culture; for neurite outgrowth in combination with 17-β-estradiol vs either drug alone: INGAP peptide 1000 ng/mL + 17-β-estradiol 10 nM; for neurite outgrowth in combination with NGF vs INGAP peptide alone: INGAP peptide 1000 ng/mL + NGF 50 ng/mL; for INGAP peptide-stimulated neurite outgrowth after preincubation with anti-NGF antibody: cultures pre-incubated with anti-NGF antibody
Experimental: (§1) DRG (L3, L4, L5) were dissected from wild-type C57/B16 mice <, and DRG explants were cultured in […] of Matrigel at 37° C. (5% CO2) for 24 h in phenol-red free RPMI 1640 media-free supplemented with 1% penicillin/streptomycin. Neurite outgrowth was followed for 7 days and was visualized with an OLYMPUS™ BX51 system microscope equipped with a Dage-MTI CCD300-RC camera coupled to a Powermate™ 8100 Pentium™III computer (NEC Corp.) with 128 MB RAM. Bright-field microscope images were stored in uncompressed tagged image file format (TIFF) at a resolution of 600 d.p.i. and analyzed using MCID-M5+5.1 image analysis software (Imaging Research Inc.) and SYSTAT 9 statistical software (SPSS Inc.).
(§2) In all experiments, statistical significance was determined using one-way ANOVA and post-hoc Dunnett's test. The experimental group size was n=4-5, and differences were considered significant where P<0.05.

[2] = test system: cells associated with the ductal epithelium; conditions: normal, adult mouse; cited from earlier work
[3] = test system: dorsal route ganglia (DRG) explant cultures; experiment: Neurite outgrowth in DRG explant cultures (Example 1); format: cell-based, male C57BL/6 mice; conditions: DRG explants
Experimental: Using male C57BL/6 mice, dorsal route ganglia (DRG) explant cultures were established to examine the effect of the INGAP peptide of the present invention on neurite outgrowth (FIG. 1). DRG (L3, L4) were dissected from male C57BL/6 mice, and DRG explants were cultured in 14 uL of Matrigel in 2 ml of RPMI 1640 media+1% antibiotic.

explanted DRG [4] = experiment: MTT assay, mitochondrial activity in explanted DRG (Example 3); format: cell-based, C57/B16 mice
Experimental: as §1
For cell viability assays, MTT was dissolved in phosphate buffered saline (1.9 mM NaH2PO4, 8.1 mM Na2HPO4, 154 mM NaCl) and applied to DRG explant cultures at a concentration of 1.2 mM for 2 h at (37° C., 5% CO2). Media were then aspirated, and each DRG explant was incubated in […] of DMSO for 1 h. […] of DMSO from each explant was transferred to a 96-well plate and absorbance at 595 nm was read on a Bio-Rad Benchmark plate reader.
as §2

[5] = test system: cells associated with the ductal epithelium; conditions: normal, adult hamster; cited from earlier work
DRG explants = experiment: [3H]thymidine incorporation in DRG explants (Example 3); format: cell-based, C57/B16 mice; conditions: 4 days in culture; for [3H] thymidine incorporation relative to non-treated controls: 100 ng/mL
Experimental: as §1
For [3H]thymidine incorporation assays, serum-starved DRG ex-plants cultured in Matrigel were exposed to Ingap (100-1000 ng/mL) for 48 h. 1 p Ci/ml of [3H]thymidine was added to each DRG and kept for an additional 48 h, after which time the DRG were washed four times with ice-cold trichloroacetic acid (10%). Ganglia were lysed on ice in 100pL of tissue solubilizer (NCS-II, Amersham). Lysates were transferred to individual 4 mL scintillation counting vials, and 4 mL of liquid scintillation counting cocktail (Fischer SX25-5 ScintiSafe Plus 50%) was added to each lysate. Counting was performed on a Wallac 1410 liquid scintillation counter.
as §2

DRG explant cultures = experiment: MTT assay of DRG cell viability (Example 2); format: cell-based, Balb/C mice
Experimental: Using DRG explant cultures, we examined the effects of the INGAP peptide of the present invention, as well as other agents, on DRG cell viability using the MTT assay (FIG. 2). DRG (L3, L4) were dissected from Balb/C mice, and DRG explants were cultured in 14 uL of Matrigel in 2 ml of RPMI 1640 media+1% antibiotic. After 48 hours, INGAP, β-estradiol, and/or FK506 were added to the explant cultures as indicated. MTT assay was performed 7 days after the addition of drugs. Data were analyzed using one-way ANOVA with post-hoc Tuckey” test. Differences were consider significant where p<0.05. (n=3-4 per treatment group).

For `C[C@]12CC[C@@H]3c4ccc(O)cc4CC[C@H]3[C@@H]1CC[C@@H]2O` [17-β-estradiol, reference compound], the “neurite outgrowth relative to non-treated cultures” value (explanted DRG [1]) was “strong neurite outgrowth”.
For “GLHDPSHGTLPNGSG [15-amino-acid fragment (amino acids 104-118) of Islet Neogenesis Associated Protein]”, the “islet-cell neogenesis, new islet formation” value [2] is listed as “potent inducer of islet-cell neogenesis”, the “neurite outgrowth vs non-treated DRG” value (explanted DRG [1]; 100 ng/mL, any time point examined) is listed as “No effects” and the “neurite outgrowth vs non-treated DRG” value (explanted DRG [1]; 100 ng/mL, any time point examined, listed as INGAP) is listed as “did not have a significant effect”. For the same molecule, the “overall length and density of neurite outgrowth vs non-treated DRG” value (explanted DRG [1]; 500 ng/mL, listed as INGAP) was “significant enhancement”, the “overall length and density of neurite outgrowth vs non-treated DRG” value (explanted DRG [1]; 500 ng/mL) was “Significant effects” and the “neurite outgrowth vs non-treated DRG” value (explanted DRG [1]; 1000 ng/mL, 7 days in culture) was “continued to significantly enhance neurite outgrowth”. The “overall length and density of neurite outgrowth vs non-treated DRG” value (explanted DRG [1]; 1000 ng/mL) was “Significant effects”, the “overall length and density of neurite outgrowth vs non-treated DRG” value (explanted DRG [1]; 1000 ng/mL, listed as INGAP) was “significant enhancement” and the “neurite outgrowth vs non-treated DRG” value (explanted DRG [1]; 24 h, regardless of the drug concentration) was “no significant differences”. For the same molecule, the “optimal dose for neurite outgrowth” value (explanted DRG [1]; DRG explants) was 1000 ng/mL, the “neurite outgrowth in combination with 17-β-estradiol vs either drug alone” value (explanted DRG [1]) was “No significant enhancement” and the “neurite outgrowth in combination with 17-β-estradiol vs either drug alone” value (explanted DRG [1]; listed as INGAP) was “not significantly different”. The “neurite outgrowth in combination with NGF vs INGAP peptide alone” value (explanted DRG [1]) was “enhances neurite outgrowth”, the “neurite outgrowth in combination with NGF vs INGAP peptide alone” value (explanted DRG [1]; listed as INGAP) was “Enhanced effects on neurite outgrowth” and the “neurite outgrowth relative to non-treated cultures” value (explanted DRG [1]) was “strong neurite outgrowth; also recorded: stimulates neurite outgrowth from the DRG explants, to an extent similar to that of the prototypical growth factor”. For the same molecule, the “neurite outgrowth relative to non-treated cultures” value (explanted DRG [1]; listed as INGAP) was “stimulates neurite outgrowth to an extent similar to that of NGF”, the “INGAP peptide-stimulated neurite outgrowth after preincubation with anti-NGF antibody” value (explanted DRG [1]) was “marked reduction” and the “INGAP peptide-stimulated neurite outgrowth after preincubation with anti-NGF antibody” value (explanted DRG [1]; listed as INGAP) was “strong reduction”. The “neurite-promoting effect compared with nerve growth factor (NGF)” value [3] was “comparable”, the neurite-promoting effect ([3]; FIG. 1) was “effective, in a dose-dependent fashion, as a neurite-promoting agent” and the “mitochondrial activity (MTT reduction) vs non-treated controls” value (explanted DRG [4]; 1000 ng/mL, 4 days in culture) was “significant increase in mitochondrial activity”. The “mitochondrial activity (MTT reduction) vs non-treated controls” value (explanted DRG [4]; 1000 ng/mL, 4 days in culture, listed as INGAP) was “significantly larger MTT reduction”, the “mitochondrial activity (MTT reduction) vs non-treated controls” value (explanted DRG [4]; 100, 500, 1000 ng/mL, 24 h in culture) was “no significant effects” and the “mitochondrial activity (MTT reduction) vs non-treated controls” value (explanted DRG [4]; 100, 500, 1000 ng/mL, 24 h in culture, listed as INGAP) was “no significant effect”. For the same molecule, the “mitochondrial activity (MTT reduction) vs non-treated controls” value (explanted DRG [4]; 500 and 1000 ng/mL, 7 days in culture, P>0.05) was “trend toward enhanced cell viability”, the “islet-cell neogenesis, new islet formation” value [5] was “potent inducer of islet-cell neogenesis” and the “[3H] thymidine incorporation relative to non-treated controls” value (DRG explants) was “no significant effects”. The “[3H] thymidine incorporation relative to non-treated controls” value (DRG explants; listed as INGAP) was “no significant effect”, the “increase in [3H] thymidine incorporation relative to non-treated controls” value (DRG explants; 500 ng/mL) was 3 fold and the “MTT reduction (cell viability)” value (DRG explant cultures; doses 100 ng/mL to 1,500 ng/mL, MTT 7 days after addition of drugs) was “tremendous increase in MTT reduction”. For the same molecule, the “dose of maximal effect on MTT reduction” value (DRG explant cultures; no significant change with 1000 or 1,500 ng/mL) was 500 ng/mL.
In the case of “NGF: conventional neurotrophic agent, nerve growth factor [reference compound]”, the “neurite outgrowth relative to non-treated cultures” value (explanted DRG [1]) was “strong neurite outgrowth”.
